The record followed here is ChEMBL document CHEMBL5233281, “Design, synthesis and biological evaluation of novel 1,3,4,9-tetrahydropyrano[3,4-b]indoles as potential treatment of triple negative breast cancer by suppressing PI3K/AKT/mTOR pathway” (Bioorg Med Chem, 2021).

The test system of assay [1] is MDA-MB-231. The experiment in a line: Induction of reactive oxygen species generation in human MDA-MB-231 cells at 2 uM incubated for 24 hrs by DCFH-DA staining based flow cytometry relative to control. Type of assay: functional. (In general: In flow cytometry, cells or beads pass a laser one at a time.)
Assay [2] relates to MDA-MB-231. Nature of the assay: Induction of cell cycle arrest in human MDA-MB-231 cells assessed as downregulation of CDK4 protein expression at 1 to 4 uM incubated for 48 hrs by western blot analysis. Type of assay: functional, cell-based. Conditions: dose 1-4 µM. Background: Immunoblotting shows a protein as a band on a membrane.
For assay [3], the system named is MDA-MB-231. Nature of the assay: Induction of apoptosis in human MDA-MB-231 cells assessed as increase in cleaved caspase-3 protein expression at 1 to 4 uM incubated for 48 hrs by western blot analysis. Type of assay: functional, cell-based. As to conditions: dose 1-4 µM.
Assay [4] deals with MDA-MB-231. The experiment in a line: Induction of apoptosis in human MDA-MB-231 cells assessed as increase in apoptotic cells at 1 uM incubated for 48 hrs by AnnexinV-FITC/PI staining based flow cytometry (reference value: 5.24%). Type of assay: functional.
Assay [5] has as its system MDA-MB-231. The experiment in a line: Induction of apoptosis in human MDA-MB-231 cells assessed as decrease in Bcl-2 protein expression measured after 48 hrs by western blot analysis. The class given is functional, cell-based. Conditions: dose 1-4 µM.
Assay [6] deals with MDA-MB-231. Nature of the assay: Induction of cell cycle arrest in human MDA-MB-231 cells assessed as accumulation of cells at G0/G1 phase at 2 uM incubated for 48 hrs by PI staining based flow cytometry (reference value: 48.33%). The class given is functional.
Assay [7] deals with MDA-MB-231. Nature of the assay: Downregulation of Akt protein expression in human MDA-MB-231 cells at 2 uM incubated for 72 hrs in presence of IGF-1 by western blot analysis. Type of assay: functional, cell-based.
The test system of assay [8] is MDA-MB-231. Nature of the assay: Induction of apoptosis in human MDA-MB-231 cells assessed as increase in apoptotic cells at 2 uM incubated for 72 hrs in presence of IGF-1 by AnnexinV-FITC/PI staining based flow cytometry. The class given is functional.
Assay [9] is described as follows: Inhibition of PI3K/Akt/mTOR signaling in human MDA-MB-231 cells assessed as reduction in Akt phosphorylation at Ser473 residue incubated for 48 hrs by western blot analysis. The class given is cell-based. As to conditions: dose 1-4 µM.
The test system of assay [10] is MDA-MB-231. Nature of the assay: Antiproliferative activity against human MDA-MB-231 cells assessed as inhibition of cell growth incubated for 72 hrs by CCK8 assay. The class given is functional, cell-based. As to conditions: MDA-MB-231, 72 h. Background: Tetrazolium assays rely on reduction of a dye to a coloured formazan, in cell work by metabolically active cells.

Assay [11] can be described thus: Inhibition of PI3K/Akt/mTOR signaling in human MDA-MB-231 cells assessed as reduction in Akt phosphorylation at Thr308 residue incubated for 48 hrs by western blot analysis. The class given is cell-based. As to conditions: dose 1-4 µM.
Assay [12] deals with MDA-MB-231. Nature of the assay: Antiproliferative activity against human MDA-MB-231 cells assessed as inhibition of cell growth measured after 24 to 96 hrs by CCK8 assay. Type of assay: functional, cell-based. Conditions: dose 1-4 µM, time 24-96 hrs.
Assay [13] deals with MDA-MB-231. Nature of the assay: Induction of apoptosis in human MDA-MB-231 cells assessed as increase in cleaved caspase-8 protein expression at 1 to 4 uM incubated for 48 hrs by western blot analysis. The class given is functional, cell-based. Conditions: dose 1-4 µM.
A further assay deals with BGC-823. The experiment in a line: Antiproliferative activity against human BGC-823 cells assessed as inhibition of cell growth incubated for 72 hrs by CCK8 assay. As to conditions: BGC-823, 72 h. The class given is functional, cell-based.

Active and inactive are the calls of the source. No cut-off for these calls is given here.

The term IC50 denotes the concentration that gives 50% inhibition.

`Fc1cc(F)cc(C2OCCc3c2[nH]c2ccccc32)c1` (centres undefined): the “fold change (FC)” value in the assay with MDA-MB-231 [1] is 1.73. For the same compound, the result in the assay with MDA-MB-231 [2], in the assay on MDA-MB-231 [3] and in the assay on MDA-MB-231 [13] was Active. Moreover, the Activity is 16.77% in the assay with MDA-MB-231 [4]; “Dose-Dependent Effect” in the assay on MDA-MB-231 [5]; 64% in the assay on MDA-MB-231 [6]; 18.5% with MDA-MB-231 [8]; “Dose-Dependent Effect” in the assay on MDA-MB-231 [12]. In addition, the inhibition entry in the assay on MDA-MB-231 [7] is “inactive”. For the same compound, the inhibition entry in [9] and in assay [11] was “Dose-Dependent Effect” each time. Moreover, the IC50 was found to be 2.29 µM with MDA-MB-231 [10] and 9.11 µM in the assay with BGC-823.
